Earlier results in patent publication US7858598B2, “Reagents for detection of hypochlorous acid” (Morningside Ventures Limited & Versitech Limited, priority 2007, dated 2010).

pKa: 7.6
SMILES: OCl [hypochlorous acid]
